Our source for the EC50 values is patent US12558357B2, “Tetrahydroquinazoline derivatives as selective cytotoxic agents” (Merck Sharp & Dohme LLC, priority 2020, dated 2026).

The subject of one assay is PBMCs infected with VSV-G pseudotyped HIV virus (VSV-G/pNLG1-P2A-ΔEnv). The experiment in a line: cells. It counts as cell-based, human. As to conditions: Homo sapiens, PBMC, read-out: EC50 (HIV-TACK cell kill activity).
Usually EC50 stands for the concentration giving half of the maximal effect. With `CC(C)CC#CC1(C(F)(F)F)NC(=O)Nc2cc(Cn3cnccc3=O)ccc21` (racemic) [Example 79, (S)-4-(4-methylpent-1-yn-1-yl)-7-((6-oxopyrimidin-1(6H)-yl)methyl)-4-(trifluoromethyl)-3,4-dihydroquinazolin-2(1H)-one AND (R)-4-(4-methylpent-1-yn-1-yl)-7-((6-oxopyrimidin-1(6H)-yl)methyl)-4-(trifluoromethyl)-3,4-dihydroquinazolin-2(1H)-one], the EC50 was 230 nM.

For the compound `Cc1cc(=O)n(Cc2ccc3c(c2)NC(=O)N[C@]3(C#CC2CC2)C(F)(F)F)cn1` [Example 34, (S)-4-(cyclopropylethynyl)-7-((4-methyl-6-oxopyrimidin-1(6H)-yl)methyl)-4-(trifluoromethyl)-3,4-dihydroquinazolin-2(1H)-one], the EC50 came to 117 nM.

Consider `Cc1nc(N)c(=O)n(Cc2ccc3c(c2)NC(=O)N[C@]3(C#CC2CC2)C(F)(F)F)c1C` [Example 60, (S)-7-((3-amino-5,6-dimethyl-2-oxopyrazin-1(2H)-yl)methyl)-4-(cyclopropylethynyl)-4-(trifluoromethyl)-3,4-dihydroquinazolin-2(1H)-one], for which the EC50 was 156 nM.

For `Cc1cc(=O)n(Cc2cc3c(cc2Cl)[C@@](C#CC2CC2)(C(F)(F)F)NC(=O)N3)cn1` [Example 3, (S)-6-chloro-4-(cyclopropylethynyl)-7-((4-methyl-6-oxopyrimidin-1(6H)-yl)methyl)-4-(trifluoromethyl)-3,4-dihydroquinazolin-2(1H)-one], the EC50 was 26 nM.

Regarding `COc1ccc(=O)n(Cc2cc3c(cc2F)[C@@](C#CC2CC2)(C(C)(F)F)NC(=O)N3)n1` [Example 82, (S)-4-(cyclopropylethynyl)-4-(1,1-difluoroethyl)-6-fluoro-7-((3-methoxy-6-oxopyridazin-1(6H)-yl)methyl)-3,4-dihydroquinazolin-2(1H)-one], the EC50 was 66 nM.

In the case of `CC(F)(F)c1ncn(Cc2ccc3c(c2)NC(=O)N[C@]3(C#CC2CC2)C(F)(F)F)c(=O)c1N` [Example 81, (S)-7-((5-amino-4-(1,1-difluoroethyl)-6-oxopyrimidin-1(6H)-yl)methyl)-4-(cyclopropylethynyl)-4-(trifluoromethyl)-3,4-dihydroquinazolin-2(1H)-one], the EC50 stood at 166 nM.

Turning to `Nc1nccn(Cc2cc3c(cc2Br)[C@@](C#CC2CC2)(C(F)(F)F)NC(=O)N3)c1=O` [Example 45, (S)-7-((3-amino-2-oxopyrazin-1(2H)-yl)methyl)-6-bromo-4-(cyclopropylethynyl)-4-(trifluoromethyl)-3,4-dihydroquinazolin-2(1H)-one], the EC50 is 50 nM.

As for `O=C1Nc2cc(Cn3cnccc3=O)c(F)cc2[C@@](C#CC2CC2)(C(F)(F)F)N1` [Example 1, (S)-4-(cyclopropylethynyl)-6-fluoro-7-((6-oxopyrimidin-1(6H)-yl)methyl)-4-(trifluoromethyl)-3,4-dihydroquinazolin-2(1H)-one], the EC50 was 22 nM.

Consider `Nc1nc(Br)cn(Cc2cc3c(cc2F)[C@@](C#CC2CC2)(C(F)(F)F)NC(=O)N3)c1=O` [Example 16, (S)-7-((3-amino-5-bromo-2-oxopyrazin-1(2H)-yl)methyl)-4-(cyclopropylethynyl)-6-fluoro-4-(trifluoromethyl)-3,4-dihydroquinazolin-2(1H)-one], for which the EC50 is 38 nM.

For `O=C1Nc2cc(Cn3cnc(C(F)F)cc3=O)c(F)cc2[C@@](C#CC2CC2)(C(F)(F)F)N1` [Example 6, (S)-4-(cyclopropylethynyl)-7-((4-(difluoromethyl)-6-oxopyrimidin-1(6H)-yl)methyl)-6-fluoro-4-(trifluoromethyl)-3,4-dihydroquinazolin-2(1H)-one], the EC50 turned out to be 38 nM.

In the case of `Nc1cc(=O)n(Cc2ccc3c(c2)NC(=O)N[C@]3(C#CC2CC2)C(F)(F)F)cn1` [Example 28, (S)-7-((4-amino-6-oxopyrimidin-1(6H)-yl)methyl)-4-(cyclopropylethynyl)-4-(trifluoromethyl)-3,4-dihydroquinazolin-2(1H)-one], the EC50 was determined as 171 nM.

On to `CC(F)(F)[C@@]1(C#CC2CC2)NC(=O)Nc2cc(Cn3ccnc(N)c3=O)c(F)cc21` [Example 67, (S)-7-((3-amino-2-oxopyrazin-1(2H)-yl)methyl)-4-(cyclopropylethynyl)-4-(1,1-difluoroethyl)-6-fluoro-3,4-dihydroquinazolin-2(1H)-one], for which the EC50 is 12 nM.

Take `Nc1nccn(Cc2ccc3c(c2)NC(=S)N[C@]3(C#CC2CC2)C(F)(F)F)c1=O` [Example 71, (S)-3-amino-1-((4-(cyclopropylethynyl)-2-thioxo-4-(trifluoromethyl)-1,2,3,4-tetrahydroquinazolin-7-yl)methyl)pyrazin-2(1H)-one]: the EC50 is 41 nM.

For the compound `Nc1c(C(F)(F)F)ccn(Cc2ccc3c(c2)NC(=O)N[C@]3(C#CC2CC2)C(F)(F)F)c1=O` [Example 72, (S)-7-((3-amino-2-oxo-4-(trifluoromethyl)pyridin-1(2H)-yl)methyl)-4-(cyclopropylethynyl)-4-(trifluoromethyl)-3,4-dihydroquinazolin-2(1H)-one], the EC50 is 193 nM.

On to `COCc1cc(=O)n(Cc2cc3c(cc2F)[C@@](C#CC2CC2)(C(F)(F)F)NC(=O)N3)cn1` [Example 7, (S)-4-(cyclopropylethynyl)-6-fluoro-7-((4-(methoxymethyl)-6-oxopyrimidin-1(6H)-yl)methyl)-4-(trifluoromethyl)-3,4-dihydroquinazolin-2(1H)-one], for which the EC50 turned out to be 44 nM.

Regarding `Nc1nccn(Cc2ccc3c(c2)NC(=O)N[C@]3(C#CC2CC2)C(F)(F)F)c1=O` [Example 9, (S)-7-((3-amino-2-oxopyrazin-1(2H)-yl)methyl)-4-(cyclopropylethynyl)-4-(trifluoromethyl)-3,4-dihydroquinazolin-2(1H)-one], the EC50 was found to be 30 nM.

Turning to `Nc1c(Cl)ncn(Cc2cc3c(cc2F)[C@@](C#CC2CC2)(C(F)(F)F)NC(=O)N3)c1=O` [Example 8, (S)-7-((5-amino-4-chloro-6-oxopyrimidin-1(6H)-yl)methyl)-4-(cyclopropylethynyl)-6-fluoro-4-(trifluoromethyl)-3,4-dihydroquinazolin-2(1H)-one], the EC50 was 46 nM.

Consider `O=C1Nc2cc(Cn3cnc(Cl)cc3=O)c(Cl)cc2[C@@](C#CC2CC2)(C(F)(F)F)N1` [Example 12, (S)-6-chloro-7-((4-chloro-6-oxopyrimidin-1(6H)-yl)methyl)-4-(cyclopropylethynyl)-4-(trifluoromethyl)-3,4-dihydroquinazolin-2(1H)-one], for which the EC50 came to 33 nM.

For the compound `Cc1cn(Cc2ccc3c(c2)NC(=O)N[C@]3(C#CC2CC2)C(F)(F)F)c(=O)c(N)n1` [Example 59, (S)-7-((3-amino-5-methyl-2-oxopyrazin-1(2H)-yl)methyl)-4-(cyclopropylethynyl)-4-(trifluoromethyl)-3,4-dihydroquinazolin-2(1H)-one], the EC50 is 78 nM.

For `O=C1Nc2cc(Cn3ccc(=O)[nH]c3=O)ccc2[C@@](C#CC2CC2)(C(F)(F)F)N1` [Example 54, (S)-1-((4-(cyclopropylethynyl)-2-oxo-4-(trifluoromethyl)-1,2,3,4-tetrahydroquinazolin-7-yl)methyl)pyrimidine-2,4(1H,3H)-dione], the EC50 is 284 nM.

For the compound `O=C1Nc2cc(Cn3cnc(C(F)F)cc3=O)c(Cl)cc2[C@@](C#CC2CC2)(C(F)(F)F)N1` [Example 62, (S)-6-chloro-4-(cyclopropylethynyl)-7-((4-(difluoromethyl)-6-oxopyrimidin-1(6H)-yl)methyl)-4-(trifluoromethyl)-3,4-dihydroquinazolin-2(1H)-one], the EC50 amounted to 41 nM.

As to `Nc1cncn(Cc2ccc3c(c2)NC(=O)N[C@]3(C#CC2CC2)C(F)(F)F)c1=O` [Example 37, (S)-1-((4-(cyclopropylethynyl)-2-oxo-4-(trifluoromethyl)-1,2,3,4-tetrahydroquinazolin-7-yl)methyl)-6-oxo-1,6-dihydropyrimidin-5-aminium 2,2,2-trifluoroacetate], the EC50 came to 89 nM.

Regarding `O=C1Nc2cc(Cn3cnc(Cl)cc3=O)ccc2[C@@](C#CC2CC2)(C(F)(F)F)N1` [Example 35, (S)-7-((4-chloro-6-oxopyrimidin-1(6H)-yl)methyl)-4-(cyclopropylethynyl)-4-(trifluoromethyl)-3,4-dihydroquinazolin-2(1H)-one], the EC50 is 101 nM.

Turning to `O=C1Nc2cc(Cn3cnc(C(F)F)cc3=O)ccc2[C@@](C#CC2CC2)(C(F)(F)F)N1` [Example 36, (S)-4-(cyclopropylethynyl)-7-((4-(difluoromethyl)-6-oxopyrimidin-1(6H)-yl)methyl)-4-(trifluoromethyl)-3,4-dihydroquinazolin-2(1H)-one], the EC50 came out at 101 nM.

On to `CN1C(=O)Nc2cc(Cn3ccnc(N)c3=O)ccc2[C@@]1(C#CC1CC1)C(F)(F)F` [Example 46, (S)-7-((3-amino-2-oxopyrazin-1(2H)-yl)methyl)-4-(cyclopropylethynyl)-3-methyl-4-(trifluoromethyl)-3,4-dihydroquinazolin-2(1H)-one], for which the EC50 was determined as 101 nM.

Regarding `CN1C(=O)Nc2cc(Cn3ccnc(N)c3=O)c(Cl)cc2C1(C#CC1CC1)C(F)(F)F` (single isomer, unassigned) [Example 76], the EC50 was found to be 42 nM.

Turning to `CC(F)(F)[C@@]1(C#CC2CC2)NC(=O)Nc2cc(Cn3ncccc3=O)c(F)cc21` [Example 50, (S)-4-(cyclopropylethynyl)-4-(1,1-difluoroethyl)-6-fluoro-7-((6-oxopyridazin-1(6H)-yl)methyl)-3,4-dihydroquinazolin-2(1H)-one], the EC50 was determined as 32 nM.

With `O=C1Nc2cc(Cn3cnc(CO)cc3=O)c(F)cc2[C@@](C#CC2CC2)(C(F)(F)F)N1` [Example 65, (S)-4-(cyclopropylethynyl)-6-fluoro-7-((4-(hydroxymethyl)-6-oxopyrimidin-1(6H)-yl)methyl)-4-(trifluoromethyl)-3,4-dihydroquinazolin-2(1H)-one], the EC50 was determined as 45 nM.

The assay is the same for the next values; noted with them: read-out: EC50 (HIV-TACK cell kill activity); 2,2,2-trifluoroacetate.
As to `Nc1cc(=O)n(Cc2ccc3c(c2)NC(=O)N[C@]3(C#CC2CC2)C(F)(F)F)cn1` [Example 32, (S)-1-((4-(cyclopropylethynyl)-2-oxo-4-(trifluoromethyl)-1,2,3,4-tetrahydroquinazolin-7-yl)methyl)-6-oxo-1,6-dihydropyrimidin-4-aminium 2,2,2-trifluoroacetate], the EC50 is 141 nM.
